In assay [1] the target is T1, recombinant RORγ Ligand Binding Domain (LBD) protein (Homo sapiens, UniProt P51449).
T1 construct: 6×His; GST
T1 sequence (P51449 269-508 limits assumed): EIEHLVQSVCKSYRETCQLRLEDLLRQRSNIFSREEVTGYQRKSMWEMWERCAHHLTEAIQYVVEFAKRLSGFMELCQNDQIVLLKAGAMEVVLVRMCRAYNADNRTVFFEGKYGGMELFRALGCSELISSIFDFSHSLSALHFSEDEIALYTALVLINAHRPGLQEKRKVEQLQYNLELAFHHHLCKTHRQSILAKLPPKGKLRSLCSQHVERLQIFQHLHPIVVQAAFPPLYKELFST
The experiment in a line: Radio-Ligand RORγ Binding Assay (Assay 1). Conditions: radio-ligand competition, 25-hydroxy [26,27-3H]-cholesterol, RORγ LBD; read-out: Avg ROR Bind Ki. The method, boiled down:
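Cell-free SPA competition between compound and 25-hydroxy[26,27-^3H]-cholesterol for 6×His-GST-tagged RORγ LBD in 50 mM HEPES pH 7.4 with NaCl, MgCl2, glycerol, CHAPS, octylglucoside and DTT. Mix was shaken 20 min, held 10 min at rt, then read after poly-Lys YSi beads. IC50 came from a four-parameter fit, and Ki from radioligand KD.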

Assay [2] addresses T2, full-length RORγt in Jurkat cells (Homo sapiens, UniProt P51449).
T2 construct: transcriptional activity of the full-length RORγt in Jurkat cells; host or cells: Jurkat cells (ATCC TIB-152)
T2 sequence (P51449 1-497 isoform P51449-2): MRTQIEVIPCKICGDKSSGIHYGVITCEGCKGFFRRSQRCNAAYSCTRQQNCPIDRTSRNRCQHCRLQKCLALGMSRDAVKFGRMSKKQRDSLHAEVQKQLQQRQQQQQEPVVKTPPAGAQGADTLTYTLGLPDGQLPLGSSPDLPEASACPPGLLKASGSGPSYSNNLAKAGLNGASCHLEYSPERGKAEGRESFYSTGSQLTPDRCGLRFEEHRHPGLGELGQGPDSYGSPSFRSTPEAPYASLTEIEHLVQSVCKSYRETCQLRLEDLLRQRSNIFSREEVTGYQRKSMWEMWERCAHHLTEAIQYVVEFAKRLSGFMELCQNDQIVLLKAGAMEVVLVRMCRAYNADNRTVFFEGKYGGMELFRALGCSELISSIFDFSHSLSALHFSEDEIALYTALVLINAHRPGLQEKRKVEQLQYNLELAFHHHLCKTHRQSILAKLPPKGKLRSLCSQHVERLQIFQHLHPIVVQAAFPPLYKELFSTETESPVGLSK
The experiment in a line: RORγt 5×RORE Assay in Jurkat Cells (Assay 2). Conditions: 5×RORE luciferase reporter. In kind it is cell-based. The method, boiled down: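 Jurkat cells transiently co-transfected with full-length RORγt expression plasmid and secreted NanoLuc reporter driven by 5×RORE; plated in phenol-red-free RPMI with 10% delipidated FBS. Compounds added at 0.1% DMSO final, 16-18 hrs at 37° C; supernatant luciferase read with NanoGlo as measure of inverse agonism.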
In general terms: In a reporter assay the amount or activity of a reporter protein is the signal.

Setting [3] is: Table 20, read-out: Avg ROR γt/5x IC5.

Experimental findings from patent US11008340B2, “Modulators of ROR-gamma” (Vitae Pharmaceuticals, LLC, priority 2015, dated 2021) are described below.

Like-named read-outs stand apart in the source and are kept apart here. Some results are limits rather than exact numbers.

On to `CC[C@@H]1CN(c2ncc(-c3ncco3)cn2)Cc2cc(C(=O)N[C@@H](CO)c3ccc(S(=O)(=O)CC)cc3)ccc21` (single isomer, unassigned) [Hy7-33.1], for which, in assay [1], the Ki was less than 100 nM. For the same molecule, the IC50 in assay [2] (setting [3]) is less than 100 nM.

Consider `CC[C@H]1CN(c2ncc(-c3ncco3)cn2)Cc2cc(C(=O)N[C@@H](CO)c3ccc(S(=O)(=O)CC)cc3)ccc21` (single isomer, unassigned) [Hy7-33.2], for which the Ki in assay [1] was less than 100 nM. Moreover, the IC50 in assay [2] (setting [3]) fell in the range of 100 to 1000 nM.

As for `CCOC(=O)c1cnc(N2Cc3cc(C(=O)N[C@@H](CO)c4ccc(S(=O)(=O)CC)cc4)ccc3[C@H](CC)C2)nc1` (single isomer, unassigned) [Hy7-34.1], the Ki in assay [1] is less than 100 nM. In addition, the IC50 in assay [2] (setting [3]) was less than 100 nM.

For the molecule `CCC1CN(C2CCC(C(F)(F)F)CC2)Cc2cc(C(=O)NC(CO)c3ccc(S(=O)(=O)CC)cc3)ccc21` (single isomer, unassigned) [Hy7-35.1], in assay [1], the Ki is less than 100 nM. In addition, the IC50 in assay [2] (setting [3]) is less than 100 nM.

On to `CCC1CN(C2CCC(C(F)(F)F)CC2)Cc2cc(C(=O)NC(CO)c3ccc(S(=O)(=O)CC)cc3)ccc21` (single isomer, unassigned) [Hy7-35.2], for which the Ki in assay [1] was less than 100 nM. Further, the IC50 in assay [2] (setting [3]) was more than 1000 nM.

In the case of `CCS(=O)(=O)c1ccc(CNC(=O)c2ccc3c(c2)CN(c2ncc(C(F)(F)F)cn2)C[C@H]3C(F)(F)F)cc1` (single isomer, unassigned) [Hy7-36.1], the Ki in assay [1] is less than 100 nM. For the same molecule, in assay [2] (setting [3]), the IC50 was less than 100 nM.

In the case of `CCS(=O)(=O)c1ccc(CNC(=O)c2ccc3c(c2)CN(c2ncc(C(F)(F)F)cn2)C[C@@H]3C(F)(F)F)cc1` (single isomer, unassigned) [Hy7-36.2], in assay [1], the Ki was less than 100 nM. Besides, in assay [2] (setting [3]), the IC50 was more than 1000 nM.

In the case of `CC[C@@H]1CN(c2ncc(C(F)(F)F)cc2C#N)Cc2cc(C(=O)N[C@@H](CO)c3ccc(S(=O)(=O)CC)cc3)ccc21` (single isomer, unassigned) [Hy7-37.1], the inhibition constant (Ki) in assay [1] was less than 100 nM. The IC50 in assay [2] (setting [3]) is less than 100 nM.

Regarding `CCS(=O)(=O)c1ccc([C@H](CO)NC(=O)c2ccc3c(OCC4CCOCC4)nc(C)cc3c2)cc1` [Hy1A-1, (R)-N-(1-(4-(ethylsulfonyl)phenyl)-2-hydroxyethyl)-3-methyl-1-((tetrahydro-2H-pyran-4-yl)methoxy)isoquinoline-6-carboxamide], in assay [1], the Ki is less than 100 nM. The IC50 in assay [2] (read-out: Avg ROR γt/5x IC50) was more than 1000 nM.

In the case of `CCS(=O)(=O)c1ccc(CNC(=O)c2ccc3c(OCc4ccc(C(F)(F)F)cc4)nccc3c2)cc1` [Hy1A-4, N-(4-(ethylsulfonyl)benzyl)-1-((4-(trifluoromethyl)benzyl)oxy)isoquinoline-6-carboxamide], the Ki in assay [1] was less than 100 nM. For the same molecule, in assay [2] (read-out: Avg ROR γt/5x IC50), the IC50 lay in the range of 100 to 1000 nM.

With `CCS(=O)(=O)c1ccc(CNC(=O)c2ccc3c(OC[C@H]4CC[C@H](C(F)(F)F)CC4)nccc3c2)cc1` [Hy1A-5, N-(4-(ethylsulfonyl)benzyl)-1-(((1r,4r)-4-(trifluoromethyl)cyclohexyl)methoxy)isoquinoline-6-carboxamide], the Ki in assay [1] was less than 100 nM. Further, the IC50 in assay [2] (read-out: Avg ROR γt/5x IC50) lay within 100 to 1000 nM.

Consider `CCS(=O)(=O)c1ccc(CNC(=O)c2ccc3c(OC[C@H]4CC[C@H](C(F)(F)F)CC4)nc(C)cc3c2)cc1` [Hy1A-6, N-(4-(ethylsulfonyl)benzyl)-3-methyl-1-(((1r,4r)-4-(trifluoromethyl)cyclohexyl)methoxy)isoquinoline-6-carboxamide], for which the Ki in assay [1] was less than 100 nM. Besides, the IC50 in assay [2] (read-out: Avg ROR γt/5x IC50) was less than 100 nM.

As for `CCS(=O)(=O)c1ccc([C@H](CO)NC(=O)c2ccc3c(OCc4ccc(C(F)(F)F)cc4)nccc3c2)cc1` [Hy1A-7, (R)-N-(1-(4-(ethylsulfonyl)phenyl)-2-hydroxyethyl)-1-((4-(trifluoromethyl)benzyl)oxy)isoquinoline-6-carboxamide], in assay [1], the Ki is less than 100 nM. Further, in assay [2] (read-out: Avg ROR γt/5x IC50), the IC50 is 100 to 1000 nM.

`CCS(=O)(=O)c1ccc([C@H](CO)NC(=O)c2ccc3c(OC[C@H]4CC[C@H](C(F)(F)F)CC4)nccc3c2)cc1` [Hy1A-8, N-((R)-1-(4-(ethylsulfonyl)phenyl)-2-hydroxyethyl)-1-(((1r,4R)-4-(trifluoromethyl)cyclohexyl)methoxy)isoquinoline-6-carboxamide]: the inhibition constant Ki in assay [1] was less than 100 nM. For the same molecule, the IC50 in assay [2] (read-out: Avg ROR γt/5x IC50) is 100 to 1000 nM.

In the case of `CCS(=O)(=O)c1ccc(CNC(=O)c2ccc3c(OC[C@H]4CC[C@H](C(F)(F)F)CC4)nc(Cl)cc3c2)cc1` [Hy1A-9, 3-chloro-N-(4-(ethylsulfonyl)benzyl)-1-(((1r,4r)-4-(trifluoromethyl)cyclohexyl)methoxy)isoquinoline-6-carboxamide], the Ki in assay [1] was less than 100 nM. The IC50 in assay [2] (read-out: Avg ROR γt/5x IC50) was less than 100 nM.

For the molecule `CCS(=O)(=O)c1ccc([C@H](CO)NC(=O)c2ccc3c(OC[C@H]4CC[C@H](C(F)(F)F)CC4)nc(C)cc3c2)cc1` [Hy1A-10, N-((R)-1-(4-(ethylsulfonyl)phenyl)-2-hydroxyethyl)-3-methyl-1-(((1r,4R)-4-(trifluoromethyl)cyclohexyl)methoxy)isoquinoline-6-carboxamide], the Ki in assay [1] is less than 100 nM. In addition, the IC50 in assay [2] (read-out: Avg ROR γt/5x IC50) was less than 100 nM.

As for `CCS(=O)(=O)c1ccc([C@H](CO)NC(=O)c2ccc3c(OC[C@H]4CC[C@H](C(F)(F)F)CC4)nc(Cl)cc3c2)cc1` [Hy1A-11, 3-chloro-N-((R)-1-(4-(ethylsulfonyl)phenyl)-2-hydroxyethyl)-1-(((1r,4R)-4-(trifluoromethyl)cyclohexyl)methoxy)isoquinoline-6-carboxamide], the Ki in assay [1] is less than 100 nM. In addition, the IC50 in assay [2] (read-out: Avg ROR γt/5x IC50) was less than 100 nM.

For the molecule `CCS(=O)(=O)c1ccc([C@H](CO)NC(=O)c2ccc3c(OCC4CC(F)(F)C4)nc(C)cc3c2)cc1` [Hy1A-12, (R)-1-((3,3-difluorocyclobutyl)methoxy)-N-(1-(4-(ethylsulfonyl)phenyl)-2-hydroxyethyl)-3-methylisoquinoline-6-carboxamide], the Ki in assay [1] is less than 100 nM. Also, the IC50 in assay [2] (read-out: Avg ROR γt/5x IC50) is more than 1000 nM.

In the case of `CCS(=O)(=O)c1ccc([C@H](CO)NC(=O)c2ccc3c(OCc4ccc(F)cc4)nc(C)cc3c2)cc1` [Hy1A-13, (R)-N-(1-(4-(ethylsulfonyl)phenyl)-2-hydroxyethyl)-1-((4-fluorobenzyl)oxy)-3-methylisoquinoline-6-carboxamide], in assay [1], the Ki was less than 100 nM. Also, the IC50 in assay [2] (read-out: Avg ROR γt/5x IC50) lay in the range of 100 to 1000 nM.

In the case of `CCS(=O)(=O)c1ccc([C@H](CO)NC(=O)c2ccc3c(OCC4CCC(F)(F)CC4)nc(C)cc3c2)cc1` [Hy1A-14, (R)-1-((4,4-difluorocyclohexyl)methoxy)-N-(1-(4-(ethylsulfonyl)phenyl)-2-hydroxyethyl)-3-methylisoquinoline-6-carboxamide], the Ki in assay [1] was less than 100 nM. In addition, the IC50 in assay [2] (read-out: Avg ROR γt/5x IC50) is less than 100 nM.

Consider `CCS(=O)(=O)c1ccc([C@H](CO)NC(=O)c2ccc3c(Oc4ccc(OC(F)(F)F)cc4)nc(C)cc3c2)cc1` [Hy1A-15, (R)-N-(1-(4-(ethylsulfonyl)phenyl)-2-hydroxyethyl)-3-methyl-1-(4-(trifluoromethoxy)phenoxy)isoquinoline-6-carboxamide], for which, in assay [1], the Ki is less than 100 nM. For the same molecule, the IC50 in assay [2] (read-out: Avg ROR γt/5x IC50) lay within 100 to 1000 nM.

With `CCS(=O)(=O)c1ccc([C@@H](CO)NC(=O)c2ccc3c(OC[C@H]4CC[C@H](C(F)(F)F)CC4)nc(C)cc3c2)cc1` [Hy1A-16, N-((S)-1-(4-(ethylsulfonyl)phenyl)-2-hydroxyethyl)-3-methyl-1-(((1r,4S)-4-(trifluoromethyl)cyclohexyl)methoxy)isoquinoline-6-carboxamide], the inhibition constant (Ki) in assay [1] was less than 100 nM. In addition, in assay [2] (read-out: Avg ROR γt/5x IC50), the IC50 was less than 100 nM.

As a reminder, the Ki is the dissociation constant of the complex between target and ligand, obtained from inhibition or displacement.
